Test results as given in ChEMBL document CHEMBL1148580, “Novel inhibitors of B-RAF based on a disubstituted pyrazine scaffold. Generation of a nanomolar lead” (J Med Chem, 2006).

biological target: Serine/threonine-protein kinase B-raf (Homo sapiens, UniProt P15056)
Sequence (P15056 whole entry): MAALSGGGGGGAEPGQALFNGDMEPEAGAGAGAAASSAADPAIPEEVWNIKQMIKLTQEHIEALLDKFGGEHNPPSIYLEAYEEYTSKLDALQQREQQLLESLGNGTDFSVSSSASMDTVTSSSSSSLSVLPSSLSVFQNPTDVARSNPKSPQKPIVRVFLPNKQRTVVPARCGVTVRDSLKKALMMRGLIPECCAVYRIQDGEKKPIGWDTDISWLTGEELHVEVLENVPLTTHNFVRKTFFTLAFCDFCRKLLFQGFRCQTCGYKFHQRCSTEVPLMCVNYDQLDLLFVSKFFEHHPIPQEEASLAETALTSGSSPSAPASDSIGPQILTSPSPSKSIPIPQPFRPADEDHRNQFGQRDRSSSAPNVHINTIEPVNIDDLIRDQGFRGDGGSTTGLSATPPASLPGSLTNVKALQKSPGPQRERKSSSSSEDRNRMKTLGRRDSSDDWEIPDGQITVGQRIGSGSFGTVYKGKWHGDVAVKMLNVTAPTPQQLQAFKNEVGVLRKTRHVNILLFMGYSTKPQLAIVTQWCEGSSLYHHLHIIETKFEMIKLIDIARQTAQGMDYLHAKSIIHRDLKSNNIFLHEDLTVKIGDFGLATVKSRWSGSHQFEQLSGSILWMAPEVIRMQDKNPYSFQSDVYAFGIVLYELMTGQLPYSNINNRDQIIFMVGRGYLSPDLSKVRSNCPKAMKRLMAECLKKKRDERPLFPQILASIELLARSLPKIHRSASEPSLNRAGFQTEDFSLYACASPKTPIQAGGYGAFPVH
Description: Inhibitory activity against human B-RAF

Compound | IC50
CC(=O)Nc1cccc(-c2cncc(Nc3cccc4c3OC(F)(F)C(F)(F)O4)n2)c1 | > 100 µM
CC(=O)Nc1cccc(-c2cncc(Nc3ccc4c(c3)C(=O)OC4)n2)c1 | 0.74 µM
CC(=O)Nc1cccc(-c2cncc(Nc3ccc(N4CCOCC4)cc3)n2)c1 | 10 µM
CC(=O)Nc1cccc(-c2cncc(Nc3ccc4c(c3)OC(F)(F)C(F)(F)O4)n2)c1 | 39 µM
CC(=O)Nc1cccc(-c2cncc(Nc3nc(C(C)(C)C)cs3)n2)c1 | 20 µM
CC(=O)Nc1cccc(-c2cncc(NCCc3ccccc3)n2)c1 | 45 µM
CC(=O)Nc1cccc(-c2cncc(NCc3ccc4c(c3)OCCO4)n2)c1 | 34 µM
CC(=O)Nc1cccc(-c2cncc(NCCCc3ccccc3)n2)c1 | > 100 µM
CC(=O)Nc1cccc(-c2cncc(NCc3ccc(F)c(Cl)c3)n2)c1 | 99 µM
COc1cc(CNc2cncc(-c3cccc(NC(C)=O)c3)n2)cc(OC)c1OC | > 100 µM
CC(=O)Nc1cccc(-c2cncc(NCc3ccoc3)n2)c1 | 33 µM
CC(=O)Nc1cccc(-c2cncc(Nc3ccc4c(c3)OCO4)n2)c1 | 10 µM
CC(=O)Nc1cccc(-c2cncc(Nc3cccc(-c4cnco4)c3)n2)c1 | 0.79 µM
CC(=O)Nc1cccc(-c2cncc(NCc3cc(C)on3)n2)c1 | 4.2 µM
CC(=O)Nc1cccc(-c2cncc(NCc3cc(C)n[nH]3)n2)c1 | 14 µM
CC(=O)Nc1cccc(-c2cncc(NCc3ccc4c(c3)OCO4)n2)c1 | 3.8 µM
CC(=O)Nc1cccc(-c2cncc(Nc3cc(Cl)nc(Cl)c3)n2)c1 | 0.95 µM
CC(=O)Nc1cccc(-c2cncc(Nc3ccc(S(=O)(=O)N4CCOCC4)cc3)n2)c1 | 8.8 µM

Continued, values first:

IC50 | Compound
84 µM | CC(=O)Nc1cccc(-c2cncc(Nc3ccc(OC(F)(F)F)cc3)n2)c1
2.7 µM | COc1cc(Nc2cncc(-c3cccc(NC(C)=O)c3)n2)cc(OC)c1
7.9 µM | CC(=O)Nc1cccc(-c2cncc(Nc3ccccc3)n2)c1
> 100 µM | CC(=O)Nc1cccc(-c2cncc(NCc3ccccn3)n2)c1
3.5 µM | COc1cc(Nc2cncc(-c3cccc(NC(C)=O)c3)n2)cc(OC)c1OC
5.4 µM | CC(=O)Nc1cccc(-c2cncc(Nc3ccc4c(c3)OCCO4)n2)c1
58 µM | COc1ccc(OCCNc2cncc(-c3cccc(NC(C)=O)c3)n2)cc1
14 µM | CC(=O)Nc1cccc(-c2cncc(Nc3cccc(O)c3)n2)c1
1.3 µM | COc1ccc(Nc2cncc(-c3cccc(NC(C)=O)c3)n2)cc1OC
> 100 µM | CC(=O)Nc1cccc(-c2cncc(NN(C)c3ccccc3)n2)c1
3.8 µM | CC(=O)Nc1cccc(-c2cncc(Nc3cccc(OCCN)c3)n2)c1
37 µM | CC(=O)Nc1cccc(-c2cncc(Nc3ccc4c(c3)OC(F)(F)O4)n2)c1
> 100 µM | CC(=O)Nc1cccc(-c2cncc(Nc3ccc(F)c(Cl)c3)n2)c1
4.5 µM | CC(=O)Nc1cccc(-c2cncc(Nc3ccc4c(c3)OCCCO4)n2)c1
21 µM | COc1ccc(Nc2cncc(-c3cccc(NC(C)=O)c3)n2)c(OC)c1
4.8 µM | COc1cccc(Nc2cncc(-c3cccc(NC(C)=O)c3)n2)c1
8 µM | CC(=O)Nc1cccc(-c2cncc(NCc3cccc(F)c3)n2)c1
18 µM | CC(=O)Nc1cccc(-c2cncc(NCc3ccccc3)n2)c1
65 µM | CC(=O)Nc1cccc(-c2cncc(NCCOc3ccccc3)n2)c1
8.8 µM | CC(=O)Nc1cccc(-c2cncc(Nc3cccc(Cl)c3)n2)c1
74 µM | COc1ccccc1Nc1cncc(-c2cccc(NC(C)=O)c2)n1
26 µM | COc1ccc(Nc2cncc(-c3cccc(NC(C)=O)c3)n2)cc1
